In experiment [1] the test system is MCF-7 human breast adenocarcinoma. Nature of the experiment: Antiproliferative activity, MTT. The experiment is classed as cell-based. As to conditions: MCF7, 48 h treatment, read-out: Antiproliferative Activity (IC50 ± SD) MCF-7. In outline: (§1)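 IC50 values derive from nonlinear curve fitting of MTT-measured proliferation after 48 h of exposure to 0.01–100 μM compound. Early-passage cells in exponential growth were cultured in RPMI 1640 containing 10% FBS, with DMSO-exposed cells serving as control.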

A further experiment deals with HL60 APL cells. The experiment is described as follows: Antiproliferative activity, MTT. As to conditions: Homo sapiens, HL-60, 48 h treatment, read-out: Antiproliferative Activity (IC50 ± SD) HL60. The experiment is classed as cell-based. In outline: (§2)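 Using a 48 h treatment window, exponentially growing cells in RPMI 1640 with 10% FBS received compound from 0.01 to 100 μM. MTT absorbance relative to DMSO controls gave viability, fitted by nonlinear regression to yield IC50; experiments were run in triplicate and repeated three or more times.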

Experiment [2] relates to HeLa epithelial cervix carcinoma. The experiment is described as follows: Antiproliferative activity, MTT. The format is cell-based. As to conditions: Homo sapiens, 48 h treatment, read-out: Antiproliferative Activity (IC50 ± SD) HeLa. In outline:
as §2

Another experiment has as its system M14 human melanoma. The experiment is described as follows: Antiproliferative activity, MTT. The format is cell-based. As to conditions: 48 h treatment, read-out: Antiproliferative Activity (IC50 ± SD) M14. In outline:
as §1

Experiment [3] concerns H1299 human non-small cell lung carcinoma. Nature of the experiment: Antiproliferative activity, MTT. Particulars: 48 h treatment, read-out: Antiproliferative Activity (IC50 ± SD) H1299. The experiment is classed as cell-based. The procedure, abridged:
as §2

Another experiment has as its system U937 AML cells. The experiment is described as follows: Antiproliferative activity, MTT. The format is cell-based. As to conditions: Homo sapiens, U-937, 48 h treatment, read-out: Antiproliferative Activity (IC50 ± SD) U937. The procedure, abridged: as §1
For experiment [4], the system named is HCT116 human colorectal carcinoma. Nature of the experiment: Antiproliferative activity, MTT. The experiment is classed as cell-based. As to conditions: HCT-116, 48 h treatment, read-out: Antiproliferative Activity (IC50 ± SD) HCT116. In outline:
as §1

The target of the next experiment is T1, human DNMT1 (hDNMT1) (Homo sapiens, UniProt P26358).
T1 construct: His; made in house
The experiment is described as follows: DNMT1 assay ([methyl-3H]SAM, Flashplate). The format is biochemical. Particulars: mean of at least two independent experiments; read-out: Enzyme Inhibition (EC50 ± SD) hDNMT1. On the procedure: His-DNMT1 (182 kDa, human) was cloned, expressed, and purified as described by Lee et al.. The DNMT1 assay was performed according to Gros et al.. […] The reaction was incubated 2 h at 37 °C, then 8 µL of the solution are transferred into a streptavidin 96-well scintillant coated Flashplate containing 190 µL of 20 mM SAH in 50 mM Tris–HCl (pH 7.4). The Flashplate is agitated for 1 h at room temperature and washed. The plate is read with TopCount (PerkinElmer). In this assay, the negative and positive controls were defined as wells without enzyme and wells with only DMSO, respectively.

In a further experiment the target is T2, DNMT3A protein (Homo sapiens, UniProt Q9Y6K1).
T2 construct: endogenous in cells; host or cells: HCT116
The experiment is described as follows: Western blot of DNMT3A protein level in HCT116 cells. The format is cell-based. As to conditions: 24 h. From the text: Cells were lysed in Laemmli buffer; subsequently the proteins were resolved by sodium dodecyl sulphate-polyacrylamide gel electrophoresis and transferred to a 0.45 µm nitrocellulose membrane (Bio-Rad Laboratories, Hercules, CA, USA). The following primary antibodies were used for immunoblotting: α-DNMT1 (Novus Biologicals, Littleton, CO, USA). α-DNMT3a (SantaCruz Bio-technologies, CA, USA) and α-GAPDH (Millipore Corp., Bedford, MA USA), used as a loading control. The immune complexes were detected with horseradish peroxidase-conjugated species-specific secondary antiserum (Bio-Rad Laboratories, Hercules, CA, USA) then by enhanced chemiluminescence reaction (Bio-Rad Laboratories, Hercules, CA, USA). Densitometric analysis of protein expression was performed by using the Fiji-Image J image processing package.

The next experiment relates to U937 cells. The experiment is described as follows: Sub-G1 peak, cell cycle flow cytometry. The experiment is classed as cell-based, human. Particulars: U937, 1 µM; for effect on sub-G1 peaks vs untreated cells: 24 and 48 h. Here is the method: Cell cycle analysis was performed on 5 × 10^5 fixed cells resuspended in a RNase A (3 mg/mL) and propidium iodide (PI) solution (1 mg/mL). Samples were analyzed with a C6 Accuri BD (Becton Dickinson & Co., San Jose, CA, USA). The percentage of apoptosis was measured analyzing sub-G1 peaks. Apoptotic cell death was also evaluated by using annexin V–fluorescein isothiocyanate (FITC) apoptosis kit (BD Bioscience) and assayed according to the manufacturer’s instructions. Cells double-stained for both annexin V and PI were analyzed by flow cytometry. PI was used in conjunction with annexin V–FITC to distinguish cells in the earlier stages of apoptosis (annexin V-FITC positive, PI negative) from those in later stages of apoptosis or that were already dead (annexin V–FITC positive, PI positive). Percentage of cells positive for caspase-3 activation was evaluated by Active Caspase-3 Apoptosis Kit (BD biosciences, Milan, Italy) according to the manufacturer’s instructions.
On the technique in general: In flow cytometry, cells or beads pass a laser one at a time.

Experiment [5] deals with peripheral blood B lymphocyte AHH1 cells. The experiment is described as follows: Differential toxicity, antiproliferative assay. As to conditions: Homo sapiens, AHH-1; 48 h treatment; read-out: IC50 against AHH1 cells. The format is cell-based. Here is the method: U937 histiocytic lymphoma, HL60 acute promyelocytic leukemia, H1299 lung adenocarcinoma, MCF7 breast carcinoma, HT1080 fibrosarcoma, M14 melanoma, HeLa epithelial cervix carcinoma and peripheral blood B lymphocyte AHH1 human cell lines were obtained from the Deutsche Sammlung für Mikroorganismen and Zellkulturen (DSZM, Braunschweig, Germany) and were maintained in RPMI 1640 medium contained 10% fetal bovine serum (FBS), 2 mM L-glutamine, and antibiotics in a humidified atmosphere with 5% CO2 at 37 °C. […]
Then, increasing concentrations of different compounds (ranging from 0.01 to 100 μM) were added, and cell proliferation was evaluated by a MTT assay after 48 h. […] The effect of compounds was evaluated using the CellTiter-Glo luminescent cell viability assay (Promega, Madison, WI, USA) according to the manufacturer’s instructions. […] After treatments, MTT solution was added for 3 h at 0.5 mg/mL, the obtained crystals were dissolved in DMSO (Sigma-Aldrich, Milan, Italy), and the absorbance was read at a wavelength of 570 nm with reader TECAN M-200. […]
IC50 values of compounds against cellular viability were determined by using nonlinear regression fitting curves with GraphPad Prism 8. […]

The term IC50 denotes the concentration at which inhibition is half-maximal. For orientation: EC50 means the concentration at which the effect is half-maximal.

The structures appear in SMILES notation. Where two headings read alike, the source gives them in different places.

T2 sequence (Q9Y6K1 whole entry, looked up): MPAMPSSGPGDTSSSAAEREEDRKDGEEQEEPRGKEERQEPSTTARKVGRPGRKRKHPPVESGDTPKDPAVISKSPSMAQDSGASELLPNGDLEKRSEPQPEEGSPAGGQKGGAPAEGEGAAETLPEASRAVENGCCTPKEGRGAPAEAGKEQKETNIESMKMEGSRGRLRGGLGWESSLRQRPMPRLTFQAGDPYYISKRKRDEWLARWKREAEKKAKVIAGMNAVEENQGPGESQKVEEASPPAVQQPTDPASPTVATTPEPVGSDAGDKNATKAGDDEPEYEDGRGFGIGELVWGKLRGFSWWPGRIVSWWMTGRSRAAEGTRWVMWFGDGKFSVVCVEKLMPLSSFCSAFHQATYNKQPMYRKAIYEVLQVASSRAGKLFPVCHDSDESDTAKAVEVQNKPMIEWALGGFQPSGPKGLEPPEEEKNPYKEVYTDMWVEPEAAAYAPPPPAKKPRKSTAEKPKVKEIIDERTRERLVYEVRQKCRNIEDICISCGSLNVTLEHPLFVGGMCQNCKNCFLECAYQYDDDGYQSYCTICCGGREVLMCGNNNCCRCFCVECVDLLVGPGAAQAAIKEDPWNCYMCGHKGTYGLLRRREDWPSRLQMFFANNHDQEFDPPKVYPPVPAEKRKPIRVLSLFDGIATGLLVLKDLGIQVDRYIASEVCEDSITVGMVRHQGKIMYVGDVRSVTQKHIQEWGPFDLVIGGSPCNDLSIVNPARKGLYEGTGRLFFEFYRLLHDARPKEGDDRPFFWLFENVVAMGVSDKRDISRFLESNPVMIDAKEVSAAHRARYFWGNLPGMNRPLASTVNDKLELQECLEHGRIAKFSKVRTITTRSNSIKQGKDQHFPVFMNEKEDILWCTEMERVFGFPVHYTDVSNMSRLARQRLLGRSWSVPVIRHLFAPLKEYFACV
T1 sequence (P26358 whole entry): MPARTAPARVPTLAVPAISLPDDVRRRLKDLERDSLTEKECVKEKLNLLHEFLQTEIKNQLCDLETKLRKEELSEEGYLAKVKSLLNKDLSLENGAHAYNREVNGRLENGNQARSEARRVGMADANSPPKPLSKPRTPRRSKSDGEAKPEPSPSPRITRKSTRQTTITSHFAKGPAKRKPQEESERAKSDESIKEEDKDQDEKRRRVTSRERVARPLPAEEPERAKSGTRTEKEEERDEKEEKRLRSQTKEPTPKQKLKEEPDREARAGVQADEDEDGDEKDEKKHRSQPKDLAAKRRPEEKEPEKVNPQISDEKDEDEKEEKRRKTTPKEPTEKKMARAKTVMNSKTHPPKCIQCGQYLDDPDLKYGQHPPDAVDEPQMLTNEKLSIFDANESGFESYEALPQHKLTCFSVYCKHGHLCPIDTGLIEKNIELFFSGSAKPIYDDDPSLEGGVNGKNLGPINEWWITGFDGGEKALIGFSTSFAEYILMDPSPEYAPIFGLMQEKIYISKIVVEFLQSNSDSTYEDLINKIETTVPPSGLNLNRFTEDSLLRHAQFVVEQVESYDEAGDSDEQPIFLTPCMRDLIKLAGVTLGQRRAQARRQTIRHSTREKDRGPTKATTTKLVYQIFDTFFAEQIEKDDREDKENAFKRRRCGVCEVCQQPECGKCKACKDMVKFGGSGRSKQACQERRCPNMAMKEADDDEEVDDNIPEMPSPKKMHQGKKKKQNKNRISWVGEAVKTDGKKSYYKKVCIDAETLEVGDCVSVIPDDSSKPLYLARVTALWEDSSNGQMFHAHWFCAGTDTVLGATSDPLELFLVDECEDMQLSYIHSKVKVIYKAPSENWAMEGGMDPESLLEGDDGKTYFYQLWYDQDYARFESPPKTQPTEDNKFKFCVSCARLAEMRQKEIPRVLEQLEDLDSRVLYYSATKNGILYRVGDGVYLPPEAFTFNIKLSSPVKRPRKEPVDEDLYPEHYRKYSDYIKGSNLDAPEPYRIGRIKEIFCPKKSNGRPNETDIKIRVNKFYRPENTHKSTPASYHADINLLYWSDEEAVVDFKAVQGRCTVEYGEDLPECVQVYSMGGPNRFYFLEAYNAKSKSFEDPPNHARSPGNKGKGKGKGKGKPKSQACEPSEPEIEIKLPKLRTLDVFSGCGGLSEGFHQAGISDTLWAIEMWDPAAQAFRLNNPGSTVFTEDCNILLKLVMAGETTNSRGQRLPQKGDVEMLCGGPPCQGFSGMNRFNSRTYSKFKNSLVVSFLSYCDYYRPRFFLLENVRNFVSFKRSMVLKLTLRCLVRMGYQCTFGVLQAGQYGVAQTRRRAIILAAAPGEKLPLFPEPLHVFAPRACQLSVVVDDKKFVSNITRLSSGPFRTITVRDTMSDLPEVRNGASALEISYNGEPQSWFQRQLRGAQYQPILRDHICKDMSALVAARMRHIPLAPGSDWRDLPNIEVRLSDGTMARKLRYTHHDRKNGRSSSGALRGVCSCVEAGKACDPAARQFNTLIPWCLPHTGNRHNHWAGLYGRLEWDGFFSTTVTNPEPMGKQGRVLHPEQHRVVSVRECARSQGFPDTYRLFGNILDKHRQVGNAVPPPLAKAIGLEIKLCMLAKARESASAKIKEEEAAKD

For the molecule `O=C(Nc1cccc(Nc2ccnc3ccccc23)c1)c1ccc(Nc2ccnc3ccccc23)cc1` [Compound 2c], the IC50 in experiment [1] stood at 2.2 ± 0.4 µM; with HL60 APL cells, 1.9 ± 0.3 µM; in [2], 4.2 ± 0.8 µM; in the experiment on M14 human melanoma, 3.8 ± 0.7 µM; in experiment [3] (Homo sapiens, NCI-H1299, 48 h) it was 14 ± 1.8 µM; with U937 AML cells, 1.5 ± 0.1 µM. Besides, the IC50 in experiment [4] was found to be 2.3 ± 0.5 µM. In addition, the EC50 at human DNMT1 (hDNMT1) is 22 ± 3 µM.

As for `O=C(Nc1cccc(NC(=O)c2ccc(Nc3ccnc4ccccc34)cc2)c1)OCc1ccccc1` [Compound 4c], the “DNMT3A protein level (western blot)” value was “decrease” on DNMT3A protein (HCT116, 0.1 µM) and “decrease” on DNMT3A protein (HCT116, 1 µM). On DNMT3A protein (HCT116, 1 µM, co-treated with bortezomib 10 nM), the “DNMT3A protein level (western blot) with bortezomib” value is “rescued”. Besides, the “effect on sub-G1 peaks vs untreated cells” value with U937 cells is “no”. In addition, the IC50 with HL60 APL cells stood at 0.3 ± 0.07 µM; in [2], 7.4 ± 1.2 µM; in the experiment with M14 human melanoma, 4.5 ± 0.8 µM; in experiment [3] (Homo sapiens, NCI-H1299, 48 h), 6.9 ± 0.9 µM; with U937 AML cells, 1.2 ± 0.2 µM; in experiment [4] it was 17.7 ± 2.4 µM. The IC50 in [5] is 9.6 µM.

On to `O=C(Nc1cccc(Nc2ccnc3ccccc23)c1)c1cccc(Nc2ccnc3ccccc23)c1` [Compound 2b], for which the “DNMT3A protein level (western blot)” value on DNMT3A protein (HCT116, 1 µM) is “decrease”. In addition, the IC50 in experiment [1] is 0.3 ± 0.06 µM; in the experiment with HL60 APL cells it was 1.6 ± 0.2 µM; in experiment [2], 2 ± 0.3 µM; in the experiment with M14 human melanoma it was 4.7 ± 0.6 µM; in experiment [3] (Homo sapiens, NCI-H1299, 48 h), 5.3 ± 0.9 µM; in the experiment on U937 AML cells, 1.5 ± 0.1 µM. In addition, the values for the IC50 in [4] and in [5] were 1.5 ± 0.3 µM and 3.3 µM, respectively.

With `O=C(Nc1ccc(NC(=O)c2cccc(Nc3ccnc4ccccc34)c2)cc1)OCc1ccccc1` [Compound 4a], in the experiment with U937 cells, the “effect on sub-G1 peaks vs untreated cells” value is recorded as “very low”. Besides, the IC50 in the experiment with HL60 APL cells was 0.3 ± 0.06 µM; in experiment [2] it was 77 ± 7.9 µM; with M14 human melanoma, 69 ± 8.1 µM; in experiment [3] (Homo sapiens, NCI-H1299, 48 h), 45 ± 4.1 µM; in the experiment on U937 AML cells it was 0.5 ± 0.08 µM; in experiment [4], 23.9 ± 2.6 µM.

In the case of `O=C(Nc1ccc(Nc2ccnc3ccccc23)cc1)c1cccc(Nc2ccnc3ccccc23)c1` [Compound 2a], the “percentage of sub-G1 peak” value in the experiment on U937 cells (48 h) is given as 62%. Also, the IC50 stood at 4.1 ± 0.7 µM in experiment [1]; 0.2 ± 0.03 µM with HL60 APL cells; 0.14 ± 0.04 µM in experiment [2]; 0.5 ± 0.08 µM in the experiment on M14 human melanoma; 14.7 ± 2.3 µM in [3]; 15 µM in experiment [3] (Homo sapiens, NCI-H1299, 48 h). The results for the IC50 (in the experiment with U937 AML cells; in [4]) were 0.7 ± 0.09 µM and 1 ± 0.2 µM, respectively. For the same molecule, on human DNMT1 (hDNMT1), the EC50 worked out at 23 ± 4 µM.
